Laboratory results published in publication PMC6753678, “Fueling Open Innovation for Malaria Transmission-Blocking Drugs: Hundreds of Molecules Targeting Early Parasite Mosquito Stages” (Frontiers in Microbiology, 2019).
Where two headings read alike, the source gives them in different places.

What was measured:
[1] = tested on: P. falciparum late stage (stages IV-V) gametocytes; set-up: method as in Almela et al 2016; details: TCAMS screen comparison; ref Almela et al 2016; read-out: Pf GCT ATP IC50; cited from earlier work
HepG2 cells [2] = experiment: HepG2 cytotoxicity assay; details: HepG2 cytotoxicity unified across the three screens
Summary of the method: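 Percent inhibition derived from fluorescent viability readout, normalised to DMSO (negative) and 50 μM doxorubicin (positive). Compound incubation lasted 48 h at 37°C, 5% CO2, with 2,500 HepG2 cells/well in MEM plus 10% FBS and 1% NEAA.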

[3] = tested on: P. falciparum female gametocytes; set-up: method as in Miguel-Blanco et al 2017; details: TCAMS screen comparison; ref Miguel-Blanco et al 2017; read-out: Pf FGAA IC50; cited from earlier work
HepG2 cells [4] = details: cited from earlier work
[5] = tested on: P. falciparum late stage (stages IV-V) gametocytes; experiment: P. falciparum late stage gametocyte ATP depletion assay (Pf GC-ATP); details: 1: YES; 0: NO
[6] = tested on: P. falciparum female gametocytes; experiment: P. falciparum female gametogenesis assay (Pf FGAA); details: 1: YES; 0: NO
[7] = value reported with the Pf FGAA screen, ref Miguel-Blanco et al 2017
[8] = value reported with the Pf GCT ATP screen, ref Almela et al 2016

| SMILES | IC50 [1] | Unified cytotox (HepG2 cells [2]) | IC50 [3] | HepG2 cytoxicity (HepG2 cells [4]; [7]) | HepG2 cytoxicity (HepG2 cells [4]; [8]) | Is compound selective in assay? Pf GC-ATP active? [5] | Is compound selective in assay? Pf FGAA active? [6] |
| --- | --- | --- | --- | --- | --- | --- | --- |
| CC(C)NCc1ccc(OCc2cccc(COc3ccc(CNC(C)C)cc3I)c2)c(I)c1.Cl [TCMDC-137259] | 210 nM | 3.27 µM | 1320 nM | 1.64 µM | 4.9 µM | 1 (1: YES) | 0 (0: NO) |
| CCCCOc1ccc(CNCCCCCCNCc2ccc(OCCCC)c3ccccc23)c2ccccc12.CS(=O)(=O)O [TCMDC-137281] | 2800 nM | 2.67 µM | 400 nM | 2.29 µM | 3.04 µM | 0 (0: NO) | 0 (0: NO) |
| CS(=O)(=O)O.FC(F)(F)COc1ccc(CCNCCCCNCCc2ccc(OCC(F)(F)F)c3ccccc23)c2ccccc12 [TCMDC-137282] | 26.7 nM | 2.33 µM | 200 nM | 1.66 µM | 3 µM | 1 (1: YES) | 1 (1: YES) |
| CS(=O)(=O)O.FC(F)(F)COc1ccc2ccccc2c1CCNCCCCNCCc1c(OCC(F)(F)F)ccc2ccccc12 [TCMDC-137317] | 1370 nM | 2.70 µM | 1010 nM | 2.09 µM | 3.3 µM | 0 (0: NO) | 0 (0: NO) |
| COc1cc2c(cc1CCNCCCCNCCc1cc3c(cc1OC)CCCC3)CCCC2.CS(=O)(=O)O [TCMDC-137319] | 80 nM | 1.86 µM | 890 nM | 1.86 µM | <1.56 µM | 1 (1: YES) | 0 (0: NO) |
| COc1ccc2c(c1CCNCCCCNCCc1c(OC)ccc3c1CCCC3)CCCC2.CS(=O)(=O)O [TCMDC-137324] | 150 nM | 1.21 µM | 640 nM | 1.68 µM | 0.75 µM | 0 (0: NO) | 0 (0: NO) |
| C=CCOc1ccc2ccccc2c1CNCCCCCCNCc1c(OCC=C)ccc2ccccc12.CS(=O)(=O)O [TCMDC-137340] | 250 nM | 1.93 µM | 700 nM | 1.93 µM | <1.56 µM | 0 (0: NO) | 0 (0: NO) |
| Cl.c1ccc2c(Nc3ccc(Cc4ccc(Nc5c6ccccc6nc6ccccc56)cc4)cc3)c3ccccc3nc2c1 [TCMDC-137354] | 2300 nM | 4.17 µM | 1040 nM | 3.85 µM | 4.49 µM | 0 (0: NO) | 0 (0: NO) |
| Br.C/C=C/C=C/C1=NCCc2cc(OCCC)ccc21 [TCMDC-137442] | 750 nM | 18.64 µM | 1300 nM | 18.29 µM | 19 µM | 1 (1: YES) | 1 (1: YES) |
| Cl.N=C(NCCCCC1CCCCC1)c1cccc(C(=N)NCCCCC2CCCCC2)n1 [TCMDC-137452] | 220 nM | 1.71 µM | 1050 nM | 1.82 µM | 1.6 µM | 0 (0: NO) | 0 (0: NO) |
| CC(CNC(=N)c1cccc(C(=N)NCC(C)Oc2cccc(C3CCCCC3)c2)n1)Oc1cccc(C2CCCCC2)c1.Cl (stereo not shown) [TCMDC-137455] | 240 nM | 2.85 µM | 1270 nM | 2.16 µM | 3.53 µM | 1 (1: YES) | 0 (0: NO) |
| N=C(NCC1CC1c1ccccc1)c1cccc(C(=N)NCC2CC2c2ccccc2)n1 (stereo not shown) [TCMDC-137456] | 450 nM | 6.50 µM | 1890 nM | 6.21 µM | 6.8 µM | 1 (1: YES) | 0 (0: NO) |
| COc1ccc(CNCCCCCCNCc2ccc(OC)c3ccccc23)c2ccccc12.Cl [TCMDC-137631] | 510 nM | 2.44 µM | 720 nM | 1.82 µM | 3.06 µM | 0 (0: NO) | 0 (0: NO) |
| CN1CCN(CCNc2c3ccccc3nc3c2ccc2ccccc23)CC1.Cl [TCMDC-137723] | 390 nM | 5.84 µM | 3490 nM | 5.07 µM | 6.6 µM | 1 (1: YES) | 0 (0: NO) |
| COc1ccc2nc(-c3ccccc3)cc(NCCCNc3cc(-c4ccccc4)nc4ccc(OC)cc34)c2c1.Cl [TCMDC-137734] | 1210 nM | 38.15 µM | 5600 nM | 70.79 µM | 5.5 µM | 1 (1: YES) | 0 (0: NO) |
| Cl.c1ccc2c(NCCCCCCCCCNc3ccnc4ccccc34)ccnc2c1 [TCMDC-137750] | 1030 nM | 2.20 µM | 850 nM | 1.50 µM | 2.9 µM | 0 (0: NO) | 0 (0: NO) |
| Cl.c1ccc2c(NCCCCCCCCNc3ccnc4ccccc34)ccnc2c1 [TCMDC-137751] | 1080 nM | 2.44 µM | 1020 nM | 1.15 µM | 3.74 µM | 0 (0: NO) | 0 (0: NO) |
| CS(=O)(=O)O.CSc1ccc2ccccc2c1CCNCCCCNCCc1c(SC)ccc2ccccc12 [TCMDC-137763] | 230 nM | 1.73 µM | 1010 nM | 1.82 µM | 1.65 µM | 0 (0: NO) | 0 (0: NO) |
| CC1CCCCN1CCCNc1nc(NCc2ccccc2)c2ccccc2n1 (stereo not shown) [TCMDC-137771] | 140 nM | 17.35 µM | 7250 nM | 14.62 µM | 20.07 µM | 1 (1: YES) | 0 (0: NO) |
| COc1cc2ccccc2c(CNCCCCCCNCc2c(OC)c(OC)cc3ccccc23)c1OC.CS(=O)(=O)O [TCMDC-137795] | 1050 nM | 4.66 µM | 670 nM | 4.62 µM | 4.7 µM | 0 (0: NO) | 0 (0: NO) |
| COc1ccc2ccc(OC)c(CNCCCCCCNCc3c(OC)ccc4ccc(OC)cc34)c2c1.CS(=O)(=O)O [TCMDC-137796] | 290 nM | 3.36 µM | 1210 nM | 3.31 µM | 3.4 µM | 1 (1: YES) | 0 (0: NO) |
| COc1ccc2cc(CNCCCCCCNCc3ccc4cc(OC)ccc4c3)ccc2c1.CS(=O)(=O)O [TCMDC-137797] | 670 nM | 2.27 µM | 590 nM | 1.55 µM | 3 µM | 0 (0: NO) | 0 (0: NO) |
| c1cc(C2=N[C@H]3CCCC[C@@H]3N2)ccc1OCCCOc1ccc(C2=N[C@@H]3CCCC[C@H]3N2)cc1 [TCMDC-137803] | 470 nM | 38.02 µM | 11500 nM | 38.02 µM | >25 µM | 1 (1: YES) | 0 (0: NO) |
| CS(=O)(=O)O.FC(F)(F)COc1ccc2ccccc2c1CNCCCCCCNCc1c(OCC(F)(F)F)ccc2ccccc12 [TCMDC-137816] | 370 nM | 2.44 µM | 1090 nM | 1.84 µM | 3.04 µM | 0 (0: NO) | 0 (0: NO) |
| COc1c(OC)c(OC)c2ccccc2c1CNCCCCCCNCc1c(OC)c(OC)c(OC)c2ccccc12.Cl [TCMDC-137827] | 1150 nM | 3.08 µM | 1670 nM | 2.95 µM | 3.2 µM | 0 (0: NO) | 0 (0: NO) |
